In US8044221B2, “Fluorine-containing boronic acid ester compound and method for producing the same” (Unimatec Co., Ltd., priority 2008, dated 2011):
Read-outs that look alike come from different tables or passages of the source.

Test: Solubility in fluorine-containing organic solvent 1,3-bis(trifluoromethyl)benzene, visually measured
Method: The solubility of the fluorine-containing boronic acid ester compound [A] in 1,3-bis(trifluoromethyl)benzene, which was a fluorine-containing organic solvent used in Reference Example 3, described later, was 3.0 g/10 ml·solvent. Here, the solubility was determined in such a manner that the compound was added and stirred in 10 ml of said fluorine-containing organic solvent at 25° C., and then the maximum amount of addition sufficient to make the solution homogeneous was visually measured.
From this fact, a high solubility in a fluorine-containing organic solvent was confirmed.

[1] = 10 ml solvent, stirred at 25° C., maximum amount of addition giving a homogeneous solution, visually measured

SMILES	solubility in 1,3-bis(trifluoromethyl)benzene [1]	also measured
OB(O)c1ccc(B(O)O)cc1 [1,4-benzene diboronic acid]	insoluble	–
CC1(C)OB(c2ccc(B3OC(C)(C)C(C)(C)O3)cc2)OC1(C)C [1,4-bis(4,4,5,5-tetramethyl-1,3,2-dioxaborolan-2-yl)benzene]	–	solubility in 1,3-bis(trifluoromethyl)benzene: 0.17 g/10 ml·solvent
CN(C(=O)C(F)(OC(F)(F)C(F)(F)C(F)(F)F)C(F)(F)F)c1cc(B2OC(C)(C)C(C)(C)O2)cc(B2OC(C)(C)C(C)(C)O2)c1 (stereo not shown) [compound [A]]	3.0 g/10 ml·solvent	–
CN(C(=O)C(F)(OC(F)(F)C(F)(OC(F)(F)C(F)(OC(F)(F)C(F)(F)C(F)(F)F)C(F)(F)F)C(F)(F)F)C(F)(F)F)c1cc(B2OC(C)(C)C(C)(C)O2)cc(B2OC(C)(C)C(C)(C)O2)c1 (stereo not shown) [compound [B]]	–	solubility in a fluorine-containing organic solvent (5 g added to 10 ml of 1,3-bis(trifluoromethyl)benzene): a homogeneous solution was formed
